Laboratory results as given in PubChem BioAssay AID1259411 (Chemical Carcinogenesis Research Information System (CCRIS), 2018).
Calls of active or inactive are those of the source. The rule behind the calls is not given here.

Test system: rodent carcinogenicity bioassays, tumor incidence
Test: CCRIS carcinogenicity studies
In short: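 Archive of carcinogenicity, mutagenicity, tumor promotion and tumor inhibition results drawn from journals, NCI reports and other sources, expert-reviewed; covers 1985-2011 and is no longer updated.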

In the case of `CCN(CC)N=O`, the carcinogen call (Species: MOUSE, Strain/Sex: B6C3F1/MALE, Route: INTRAPERITONEAL, Dose: 0, 12 UG ON DAYS 0, 3, 9 AND 15 (STUDY DURATION: 132 WK), Tumor Site: Type of Lesion: LIVER: TUMORS) is reported as “active; positive”, the carcinogen call (Species: MOUSE, Strain/Sex: B6C3F2 (BRACHYMORPHIC)/MALE, Route: INTRAPERITONEAL, Dose: 0, 0.02, 0.07 UMOL/G BW IN 10 µL/G BW TRIOCTANOIN ONCE AT 12 D OF AGE (STUDY DURATION: 9 MO), Dose: 0, 0.02, 0.07 UMOL/G BW IN 10 µL/G BW TRIOCTANOIN ONCE AT 12 D OF AGE (STUDY DURATION: 9 MO), Tumor Site: Type of Lesion: LIVER: HEPATOMA) is reported as “active; positive” and the carcinogen call (Species: MOUSE, Strain/Sex: BALB/C/FEMALE, Route: INTRAPERITONEAL, Dose: 0, 15, 90 MG/KG ONCE (STUDY DURATION: 18 MONTHS), Dose: 0, 15, 90 MG/KG ONCE (STUDY DURATION: 18 MONTHS), Tumor Site: Type of Lesion: LUNG: TUMOR) is reported as “active; positive”. The carcinogen call (Species: MOUSE, Strain/Sex: C3AF1/FEMALE, Route: INTRAPERITONEAL, Dose: 0, 1.5, 3 UG IN 0.01 ML TRIOCTANOIN/G BW INITIAL DOSE GIVEN ON DAY 1 OF AGE AND 3 SUBSEQUENT DOSES GIVEN 3, 9 AND 15 DAY, Dose: 0, 1.5, 3 UG IN 0.01 ML TRIOCTANOIN/G BW INITIAL DOSE GIVEN ON DAY 1 OF AGE AND 3 SUBSEQUENT DOSES GIVEN 3, 9 AND 15 DAY, Tumor Site: Type of Lesion: LIVER: ADENOMA, CARCINOMA, LUNG: TUMORS) was “active; positive”, the carcinogen call (Species: MOUSE, Strain/Sex: C3AF1/FEMALE, Route: INTRAPERITONEAL, Dose: 0, 1.5, 3 UG IN 0.01 ML TRIOCTANOIN/G BW INITIAL DOSE GIVEN ON DAY 15 OF AGE AND 3 SUBSEQUENT DOSES GIVEN 3, 9 AND 15 DA, Dose: 0, 1.5, 3 UG IN 0.01 ML TRIOCTANOIN/G BW INITIAL DOSE GIVEN ON DAY 15 OF AGE AND 3 SUBSEQUENT DOSES GIVEN 3, 9 AND 15 DA, Tumor Site: Type of Lesion: LIVER: ADENOMA, CARCINOMA, LUNG: TUMORS) was “active; positive” and the carcinogen call (Species: MOUSE, Strain/Sex: C3AF1/FEMALE, Route: INTRAPERITONEAL, Dose: 0, 1.5, 3 UG IN 0.01 ML TRIOCTANOIN/G BW INITIAL DOSE GIVEN ON DAY 42 OF AGE AND 3 SUBSEQUENT DOSES GIVEN 3, 9 AND 15 DA, Dose: 0, 1.5, 3 UG IN 0.01 ML TRIOCTANOIN/G BW INITIAL DOSE GIVEN ON DAY 42 OF AGE AND 3 SUBSEQUENT DOSES GIVEN 3, 9 AND 15 DA, Tumor Site: Type of Lesion: LUNG: TUMORS) was “active; positive”. For the same molecule, the carcinogen call (Species: MOUSE, Strain/Sex: C3AF1/MALE, Route: INTRAPERITONEAL, Dose: 0, 1.5, 3 UG IN 0.01 ML TRIOCTANOIN/G BW INITIAL DOSE GIVEN ON DAY 1 OF AGE AND 3 SUBSEQUENT DOSES GIVEN 3, 9 AND 15 DAY, Dose: 0, 1.5, 3 UG IN 0.01 ML TRIOCTANOIN/G BW INITIAL DOSE GIVEN ON DAY 1 OF AGE AND 3 SUBSEQUENT DOSES GIVEN 3, 9 AND 15 DAY, Tumor Site: Type of Lesion: LIVER: ADENOMA, CARCINOMA, LUNG: TUMORS) was “active; positive”, the carcinogen call (Species: MOUSE, Strain/Sex: C3AF1/MALE, Route: INTRAPERITONEAL, Dose: 0, 1.5, 3 UG IN 0.01 ML TRIOCTANOIN/G BW INITIAL DOSE GIVEN ON DAY 15 OF AGE AND 3 SUBSEQUENT DOSES GIVEN 3, 9 AND 15 DA, Dose: 0, 1.5, 3 UG IN 0.01 ML TRIOCTANOIN/G BW INITIAL DOSE GIVEN ON DAY 15 OF AGE AND 3 SUBSEQUENT DOSES GIVEN 3, 9 AND 15 DA, Tumor Site: Type of Lesion: LIVER: ADENOMA, CARCINOMA, LUNG: TUMORS) was “active; positive” and the carcinogen call (Species: MOUSE, Strain/Sex: C3AF1/MALE, Route: INTRAPERITONEAL, Dose: 0, 1.5, 3 UG IN 0.01 ML TRIOCTANOIN/G BW INITIAL DOSE GIVEN ON DAY 42 OF AGE AND 3 SUBSEQUENT DOSES GIVEN 3, 9 AND 15 DA, Dose: 0, 1.5, 3 UG IN 0.01 ML TRIOCTANOIN/G BW INITIAL DOSE GIVEN ON DAY 42 OF AGE AND 3 SUBSEQUENT DOSES GIVEN 3, 9 AND 15 DA, Tumor Site: Type of Lesion: LIVER: ADENOMA, CARCINOMA, LUNG: TUMORS) was “active; positive”. The carcinogen call (Species: MOUSE, Strain/Sex: C3H/FEMALE, Route: TRANSPLACENTAL, Dose: 0, 0.5 MMOL IN 0.9% STERILE SALINE (51 MG/KG) ON DAY 16 OF GESTATION (STUDY DURATION: LIFETIME)) was “inactive; negative”, the carcinogen call (Species: MOUSE, Strain/Sex: C3H/FEMALE, Route: TRANSPLACENTAL, Dose: 0, 0.5 MMOL IN 0.9% STERILE SALINE (51 MG/KG) ON DAY 19 OF GESTATION (STUDY DURATION: LIFETIME), Tumor Site: Type of Lesion: LIVER: CARCINOMA, LUNG: TUMOR) was “active; positive” and the carcinogen call (Species: MOUSE, Strain/Sex: C3H/MALE, Route: INTRAPERITONEAL, Dose: 0, 12 UG ON DAYS 0, 3, 9 AND 15 (STUDY DURATION: 132 WK), Tumor Site: Type of Lesion: LIVER: TUMORS) was “active; positive”. For the same molecule, the carcinogen call (Species: MOUSE, Strain/Sex: C3H/MALE, Route: TRANSPLACENTAL, Dose: 0, 0.5 MMOL IN 0.9% STERILE SALINE (51 MG/KG) ON DAY 16 OF GESTATION (STUDY DURATION: LIFETIME)) was “inactive; negative”, the carcinogen call (Species: MOUSE, Strain/Sex: C3H/MALE, Route: TRANSPLACENTAL, Dose: 0, 0.5 MMOL IN 0.9% STERILE SALINE (51 MG/KG) ON DAY 19 OF GESTATION (STUDY DURATION: LIFETIME), Tumor Site: Type of Lesion: LIVER: CARCINOMA, LUNG: CARCINOMA) was “active; positive” and the carcinogen call (Species: MOUSE, Strain/Sex: C57BL/6J/FEMALE, Route: INTRAPERITONEAL, Dose: 0, 15, 90 MG/KG ONCE (STUDY DURATION: 18 MONTHS), Dose: 0, 15, 90 MG/KG ONCE (STUDY DURATION: 18 MONTHS), Tumor Site: Type of Lesion: LUNG: TUMOR) was “active; positive”. For the same molecule, the carcinogen call (Species: MOUSE, Strain/Sex: C57BL/MALE, Route: INTRAPERITONEAL, Dose: 0, 12 UG ON DAYS 0, 3, 9 AND 15 (STUDY DURATION: 132 WK)) was “inactive; negative”, the carcinogen call (Species: MOUSE, Strain/Sex: EU-PIM-1/FEMALE, Route: GAVAGE, Dose: 0, 1, 3 MG/KG 1/D FOR 38 WK (STUDY DURATION: 38 WK), Dose: 0, 1, 3 MG/KG 1/D FOR 38 WK (STUDY DURATION: 38 WK), Tumor Site: Type of Lesion: LIVER: HEMANGIOSARCOMA, LYMPHATIC SYSTEM: LYMPHOMA) was “active; positive” and the carcinogen call (Species: MOUSE, Strain/Sex: EU-PIM-1/MALE, Route: GAVAGE, Dose: 0, 1, 3 MG/KG 1/D FOR 38 WK (STUDY DURATION: 38 WK), Dose: 0, 1, 3 MG/KG 1/D FOR 38 WK (STUDY DURATION: 38 WK), Tumor Site: Type of Lesion: LIVER: HEMANGIOSARCOMA) was “active; positive”. The carcinogen call (Species: MOUSE, Strain/Sex: SWISS/MALE, Route: INTRAGASTRIC, Dose: 0, 80, 40 MG/KG IN NORMAL SALINE ADMINISTERED WITH A 4 WK GAP BETWEEN EACH DOSE, (STUDY DURATION: 24 WK), Dose: 0, 80, 40 MG/KG IN NORMAL SALINE ADMINISTERED WITH A 4 WK GAP BETWEEN EACH DOSE, (STUDY DURATION: 24 WK), Tumor Site: Type of Lesion: LUNG: TUMOR) was “active; positive”, the carcinogen call (Species: MOUSE, Strain/Sex: SWR/FEMALE, Route: INTRAPERITONEAL, Dose: 0, 15, 90 MG/KG ONCE (STUDY DURATION: 18 MONTHS), Dose: 0, 15, 90 MG/KG ONCE (STUDY DURATION: 18 MONTHS), Tumor Site: Type of Lesion: LUNG: TUMOR) was “active; positive” and the carcinogen call (Species: RABBIT, Route: ORAL, Tumor Site: Type of Lesion: LIVER) was “active; positive”. The carcinogen call (Species: RAT, Route: INTRAPERITONEAL, RECTAL, Tumor Site: Type of Lesion: LIVER) was “active; positive”, the carcinogen call (Species: RAT, Route: INTRAVENOUS, Tumor Site: Type of Lesion: KIDNEY) was “active; positive” and the carcinogen call (Species: RAT, Route: ORAL, Tumor Site: Type of Lesion: LIVER, ESOPHAGUS, KIDNEY, NASAL CAVITY, Tumor Site: Type of Lesion: LIVER, ESOPHAGUS, KIDNEY, NASAL CAVITY) was “active; positive”. For the same molecule, the carcinogen call (Species: RAT, Strain/Sex: F344/FEMALE, Route: INTRAVESICULAR, Dose: 0, 2.5 MG IN 0.2 ML ETHANOL: DEIONIZED WATER (1:3) 2/WK FOR 25 WK (TOTAL DOSE 1.2 MMOL) (STUDY DURATION: LIFESPAN), Tumor Site: Type of Lesion: LIVER: HEMANGIOSARCOMA, ESOPHAGUS: TUMOR) was “active; positive”, the carcinogen call (Species: RAT, Strain/Sex: F344/FEMALE, Route: ORAL, Dose: 0, 18 MG/L IN DEIONIZED DRINKING WATER DURING WK 1, 5, AND 9 (STUDY DURATION: 121 WK), Tumor Site: Type of Lesion: HEMATOPOIETIC SYSTEM: LEUKEMIA) was “active; positive” and the carcinogen call (Species: RAT, Strain/Sex: WISTAR/MALE, Route: ORAL, Dose: 0, 0.033, 0.066, 0.132, 0.264, 0.528, 1.056, 1.584, 2.112, 2.640, 3.168, 4.224, 5.280, 6.336, 8.448, 16.896 PPM IN DRINK, Dose: 0, 0.033, 0.066, 0.132, 0.264, 0.528, 1.056, 1.584, 2.112, 2.640, 3.168, 4.224, 5.280, 6.336, 8.448, 16.896 PPM IN DRINK, Tumor Site: Type of Lesion: ESOPHAGUS: TUMOR, LIVER HEPATOCELLULAR CARCINOMA) was “active; positive”.
